Test results reported in paper PMC3854609, “Biosynthesis of Sandalwood Oil: Santalum album CYP76F Cytochromes P450 Produce Santalols and Bergamotol” (PLoS ONE, 2013).
Changes are numbered by the printed parent chain.

Experiments:
Assay in all cases: GCMS product formation, yeast microsomes
Format in all cases: biochemical
SaCYP76F41 = molecular target: T1, SaCYP76F41 (Santalum album, UniProt V5RFE4); settings: substrate in mixture of santalenes and α-exo-bergamotene, 40 µM, NADPH 0.8 mM, pH 7.5, 30°C, 2 h, with SaCPR
T1 construct: gene CYP76F41; full-length cDNA in pYEDP60, yeast BY4741 microsomes, co-expressed with S. album CPR2 (KC842188)
T1 sequence (V5RFE4 1-509): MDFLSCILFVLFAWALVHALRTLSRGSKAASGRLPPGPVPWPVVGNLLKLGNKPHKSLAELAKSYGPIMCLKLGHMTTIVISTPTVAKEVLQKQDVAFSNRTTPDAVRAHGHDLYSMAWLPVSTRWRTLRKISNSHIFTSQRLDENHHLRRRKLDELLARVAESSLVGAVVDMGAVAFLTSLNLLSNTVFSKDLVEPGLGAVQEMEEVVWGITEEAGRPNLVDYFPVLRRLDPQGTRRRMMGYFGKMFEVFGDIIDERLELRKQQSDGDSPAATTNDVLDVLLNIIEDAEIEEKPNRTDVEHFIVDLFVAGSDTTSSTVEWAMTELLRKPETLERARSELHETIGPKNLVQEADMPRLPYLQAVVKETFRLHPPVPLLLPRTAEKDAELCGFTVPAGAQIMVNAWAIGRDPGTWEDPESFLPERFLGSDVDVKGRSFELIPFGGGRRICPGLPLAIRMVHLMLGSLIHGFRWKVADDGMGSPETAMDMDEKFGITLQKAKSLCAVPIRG

SaCYP76F39v2 = molecular target: T2, SaCYP76F39v2 (Santalum album, UniProt V5RGD0); settings: substrate in mixture of santalenes and α-exo-bergamotene, 40 µM, NADPH 0.8 mM, pH 7.5, 30°C, 2 h, with SaCPR
T2 construct: gene CYP76F39v2; full-length cDNA in pYEDP60, yeast BY4741 microsomes, co-expressed with S. album CPR2 (KC842188)
T2 sequence (V5RGD0 1-509): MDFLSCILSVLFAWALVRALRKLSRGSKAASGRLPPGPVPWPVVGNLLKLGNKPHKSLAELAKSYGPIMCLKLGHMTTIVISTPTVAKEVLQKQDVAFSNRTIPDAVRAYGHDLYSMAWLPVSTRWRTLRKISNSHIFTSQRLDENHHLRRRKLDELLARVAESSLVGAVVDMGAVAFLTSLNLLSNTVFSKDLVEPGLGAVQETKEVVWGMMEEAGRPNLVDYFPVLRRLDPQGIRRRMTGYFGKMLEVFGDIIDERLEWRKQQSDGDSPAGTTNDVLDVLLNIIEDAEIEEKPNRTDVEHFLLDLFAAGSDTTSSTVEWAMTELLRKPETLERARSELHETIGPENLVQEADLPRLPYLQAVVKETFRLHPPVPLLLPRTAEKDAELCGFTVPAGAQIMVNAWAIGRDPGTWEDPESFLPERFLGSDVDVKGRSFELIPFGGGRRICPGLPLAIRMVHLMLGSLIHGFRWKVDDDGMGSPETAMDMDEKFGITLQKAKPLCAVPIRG

SaCYP76F37v1 = molecular target: T3, SaCYP76F37v1 (Santalum album, UniProt V5RGC8); settings: NADPH 0.8 mM; potassium phosphate pH 7.5; 30°C; 20 min; with SaCPR; TLC-enriched substrate; read-out: apparent Km
T3 construct: gene CYP76F37v1; full-length cDNA in pYEDP60, yeast BY4741 microsomes, co-expressed with S. album CPR2 (KC842188)
T3 sequence (V5RGC8 1-509): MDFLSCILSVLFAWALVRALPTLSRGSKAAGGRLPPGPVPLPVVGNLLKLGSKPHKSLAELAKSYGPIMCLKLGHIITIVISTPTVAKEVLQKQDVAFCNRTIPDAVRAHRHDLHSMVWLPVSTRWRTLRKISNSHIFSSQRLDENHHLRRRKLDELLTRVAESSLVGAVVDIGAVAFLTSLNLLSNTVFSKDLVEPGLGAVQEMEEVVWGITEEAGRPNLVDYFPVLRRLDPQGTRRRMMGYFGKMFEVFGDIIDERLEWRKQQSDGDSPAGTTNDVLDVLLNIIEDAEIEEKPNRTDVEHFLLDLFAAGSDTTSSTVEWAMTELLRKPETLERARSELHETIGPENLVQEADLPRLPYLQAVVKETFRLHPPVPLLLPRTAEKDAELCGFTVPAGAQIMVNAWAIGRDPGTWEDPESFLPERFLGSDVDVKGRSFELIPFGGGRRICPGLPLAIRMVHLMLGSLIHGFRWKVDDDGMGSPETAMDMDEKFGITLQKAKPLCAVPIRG

SaCYP76F39v1 = molecular target: T4, SaCYP76F39v1 (Santalum album, UniProt V5RH69); settings: NADPH 0.8 mM; potassium phosphate pH 7.5; 30°C; 20 min; with SaCPR; TLC-enriched substrate; read-out: apparent Km
T4 construct: gene CYP76F39v1; full-length cDNA in pYEDP60, yeast BY4741 microsomes, co-expressed with S. album CPR2 (KC842188)
T4 sequence (V5RH69 1-509): T2 sequence (V5RGD0 1-509) with S9F, R21P, K22T, I103T, Y110H

[1] = products (Z)- and (E)-α-santalol
[2] = products (Z)- and (E)-β-santalol

Structure (SMILES)	GCMS product formation, yeast microsomes (SaCYP76F41; [1])	GCMS product formation, yeast microsomes (SaCYP76F39v2; [1])	Km (SaCYP76F37v1) [µM]	GCMS product formation, yeast microsomes (SaCYP76F41; [2])	Km (SaCYP76F39v1) [µM]	GCMS product formation, yeast microsomes (SaCYP76F39v2; [2])
CC(C)=CCCC1(C)C2CC3C(C2)C31C (stereo not drawn) [compound 1, α-santalene]	gave product profiles similar to that observed with CYP76F39v1	gave product profiles similar to that observed with CYP76F39v1				
C=C1[C@@H]2CC[C@@H](C2)[C@@]1(C)CCC=C(C)C [compound 4, β-santalene]			157	gave product profiles similar to that observed with CYP76F39v1	34.8	gave product profiles similar to that observed with CYP76F39v1
